Results as given in patent US20130164338A1 (priority 2010, published 2013).

Test system: S. pneumoniae (Serotype 3; ATCC 6303)
Experiment: S. pneumoniae mouse pneumonia model, nebulized salt formulations
Format: in vivo, C57BL/6 mice
Details: nebulized 2 h before infection; ~0.72 mg Ca/kg, ampicillin ~3 mg/kg

CC1(C)S[C@@H]2[C@H](NC(=O)[C@H](N)c3ccccc3)C(=O)N2[C@H]1C(=O)O [ampicillin]
reduction of bacterial titers in lungs relative to saline control: 33 fold
